Like-named read-outs stand apart in the source and are kept apart here.
Tests used:
[1] = Spectroscopic absorbance properties; format: physicochemical
Excerpt: (§1) The absorption bands of each photosensitiser are relatively insensitive to solvent changes with solutions in water/Cremophor resulting in a further bathochromic shift of ˜10 nm (Table 1). Excitation of chloroform solutions of the 2a and 4a at 635 nm gave a fluorescence band at 672 and 673 nm respectively (FIG. 2, Table 2). […] The reduction in fluorescence quantum yield in the series would imply more efficient population of the triplet excited state which would benefit singlet oxygen production. The ability of 2 and 4 to produce singlet oxygen would be a prerequisite to them being potential PDT agents.

[2] = Fluorescence emission and fluorescence quantum yield; format: physicochemical; conditions: for Φf (fluorescence quantum yield): relative to magnesium tetra-tert-butylphthalocyanine in CHCl3, room temperature
Excerpt: as §1

HeLa cells = assay: Light/dark cytotoxicity study (MTT) in HeLa cells; format: cell-based
Protocol: (§2) MRC5 and HeLa cell cultures were maintained in MEM (minimum essential medium) containing 10% (v/v) foetal calf serum (FCS), 1% (v/v) non-essential amino acids, 2 μg/ml Fungizone (Trade Mark) (amphotericin B), 50 μg/ml penicillin, 50 μg/ml streptomycin, 20 mM HEPES and 1% (v/v) L-Glutamine. Cells were passaged at least twice before use in the cytotoxicity assays.
(§3) Stock haematoporphyrin water-dimethyl sulphoxide (DMSO) (100:1 (v/v)) solutions were diluted with MEM containing 10% FCS. Cells were seeded at 5,000 cells/well in 96-well plates and incubated for 24 hr at 37° C. The 24 hour incubation period was chosen having regard to the slower uptake of haernatoporphyrin in the absence of Cremophor, when compared to the compounds of the present invention in the presence of Cremophor (see below). Cells were then incubated with haematoporphyrin in the dark for 24 hr at 37° C. The haematoporphyrin laden culture medium was then removed by filtration, the cells were washed with PBS and fresh culture medium was added to each well. A 500 W light source, passed through a red glass and water filter barrier, (to ensure cells are irradiated with light of wavelength greater than 570 nm) was used to irradiate the plates for both 15 and 30 min. Following irradiation, the cells were incubated for a further 48 hr at 37° C. before being assessed for cell survival.
(§4) Stock 2a or 2b water-Cremophor EL (Trade Mark—CAS 61791-12-6) (1:250 (v/v)) solutions were diluted with MEM containing 10% FCS. Cells were seeded at 5,000 cells/well in 96-well plates and incubated for 24 hr at 37° C. Cells were then incubated with 2a or 2b in the dark for 3 hr at 37° C. The 3 hour incubation period was chosen to reflect the faster cellular uptake of 2a or 2b in the presence of Cremophor, when compared to the cellular uptake of haematoporphyrins in the absence of Cremophor. The 2a or 2b laden culture medium was then removed by filtration, the cells were washed with PBS and fresh culture medium was added to each well. The plates were then irradiated using a 500 W light source passed through a red glass and water filter barrier, (thereby ensuring cells are irradiated with light of wavelength greater than 570 nm) for both 15 and 30 min.
(§5) Following irradiation, the cells were incubated for a further 48 hr at 37° C. before being assessed for cell survival. The dark toxicity of compounds of the present invention was also assessed in each experiment.
(§6) Cell viability was estimated using the standard MTT (microtiter tetrazolium) assay. This assay measures mitochondrial dehydrogenase activity and is based on the reduction of a soluble yellow tetrazolium salt to a blue, insoluble MTT formazan product by this enzyme. The subsequent colour change produced by viable cells was quantified using a plate reader (VICTOR^2 1420 multilabel HTS counter, Wallac). As mentioned above under the headings “Cytotoxicity”, the cells are incubated at 37° C. for 48 hours, following which the MTT solution was added to the cells at a final concentration of 0.5 mg/ml and incubated for 3 hr at 37° C. The MTT solution was then removed by filtration and 100 μl DMSO was added to each well in order to lyse the cells and release the formazan dye. The plates were read 1 hr later at 540 nm.
(§7) Prism (Trade Mark) […] was used to graph the data obtained from the MTT assays and the uptake/efflux experiments. This programme allows non-linear regression analysis and the generation of sigmoidal dose response curves. Prism (Trade Mark) also automatically calculates EC50 values.
(§8) Light toxicity assays were also carried out as described above under “Assay methods” in HeLa and MRC5 cells for haematoporphyrin (FIGS. 9 and 10), 2a (FIGS. 11 and 12) and 2b (FIGS. 13 and 14).

MRC5 cells = assay: Light/dark cytotoxicity study (MTT) in MRC5 cells; format: cell-based
Protocol: as §2, §3, §4, §5, §6, §7, §8

[3] = Water/Cremophor (100:1), room temperature
[4] = CHCl3, room temperature, excitation at 635 nm

Compound | fwhm (full width at half maximum) ([1]; CHCl3, room temperature) [nm] | ε (molar extinction coefficient) ([1]; CHCl3, room temperature) | λmax (absorbance) ([1]; CHCl3, room temperature) [nm] | fwhm (full width at half maximum) [1, 3] [nm] | λmax (absorbance) [1, 3] [nm] | λ em (fluorescence band) [2, 4] [nm] | λ em (fluorescence band) [2, 3] [nm] | Φf (fluorescence quantum yield) [2] | EC50 (HeLa cells; 0 J/cm^2 light (no light), read-out: EC50 (dark toxicity)) [µM] | EC50 (HeLa cells; 8 J/cm^2 light (15 mins from a 500 W light source), read-out: EC50) [µM] | EC50 (HeLa cells; 16 J/cm^2 light (30 mins from a 500 W light source), read-out: EC50) [µM] | EC50 (dark toxicity) (MRC5 cells; MRC5, 0 J/cm^2 light (no light)) | EC50 (MRC5 cells; MRC5, 8 J/cm^2 light (15 mins from a 500 W light source), read-out: EC50) [µM] | EC50 (MRC5 cells; MRC5, 16 J/cm^2 light (30 mins from a 500 W light source), read-out: EC50) [µM] | EC50 (HeLa cells; Homo sapiens, light or radiation study, 0 J/cm^2 light (no light), read-out: EC50 (dark toxicity)) [µM] | EC50 (HeLa cells; Homo sapiens, light or radiation study, 0.25 h, 8 J/cm^2 light (15 mins from a 500 W light source), read-out: EC50) [µM] | EC50 (HeLa cells; Homo sapiens, light or radiation study, 0.5 h, 16 J/cm^2 light (30 mins from a 500 W light source), read-out: EC50) [µM] | EC50 (MRC5 cells; Homo sapiens, light or radiation study, 0.25 h, MRC5, 8 J/cm^2 light (15 mins from a 500 W light source), read-out: EC50) [µM] | EC50 (MRC5 cells; Homo sapiens, light or radiation study, 0.5 h, MRC5, 16 J/cm^2 light (30 mins from a 500 W light source), read-out: EC50) [µM] | EC50 (MRC5 cells; Homo sapiens, light or radiation study, MRC5, 0 J/cm^2 light (no light), read-out: EC50 (dark toxicity)) [µM]
F[B-]1(F)n2c(c(-c3ccccc3)c(Br)c2-c2ccccc2)N=C2C(c3ccccc3)=C(Br)C(c3ccccc3)=[N+]21 [Compound 4a] | 47 | 79,000 M^−1cm^−1 | 650 | 57 | 651 | 673 | 679 | 0.012 | – | – | – | – | – | – | – | – | – | – | – | –
CC1=C(CCC(=O)O)c2cc3[nH]c(cc4nc(cc5[nH]c(cc1n2)c(C)c5C(C)O)C(C)=C4C(C)O)c(C)c3CCC(=O)O (stereo not shown) [haematoporphyrin, reference compound] | – | – | – | – | – | – | – | – | – | – | – | – | – | – | 77 | 15 | 16 | 42 | 29 | 1400

Second part, led by results:

fwhm (full width at half maximum) ([1]; CHCl3, room temperature) [nm] | ε (molar extinction coefficient) ([1]; CHCl3, room temperature) | λmax (absorbance) ([1]; CHCl3, room temperature) [nm] | fwhm (full width at half maximum) [1, 3] [nm] | λmax (absorbance) [1, 3] [nm] | λ em (fluorescence band) [2, 4] [nm] | λ em (fluorescence band) [2, 3] [nm] | Φf (fluorescence quantum yield) [2] | Compound | EC50 (HeLa cells; 0 J/cm^2 light (no light), read-out: EC50 (dark toxicity)) [µM] | EC50 (HeLa cells; 8 J/cm^2 light (15 mins from a 500 W light source), read-out: EC50) [µM] | EC50 (HeLa cells; 16 J/cm^2 light (30 mins from a 500 W light source), read-out: EC50) [µM] | EC50 (dark toxicity) (MRC5 cells; MRC5, 0 J/cm^2 light (no light)) | EC50 (MRC5 cells; MRC5, 8 J/cm^2 light (15 mins from a 500 W light source), read-out: EC50) [µM] | EC50 (MRC5 cells; MRC5, 16 J/cm^2 light (30 mins from a 500 W light source), read-out: EC50) [µM] | EC50 (HeLa cells; Homo sapiens, light or radiation study, 0 J/cm^2 light (no light), read-out: EC50 (dark toxicity)) [µM] | EC50 (HeLa cells; Homo sapiens, light or radiation study, 0.25 h, 8 J/cm^2 light (15 mins from a 500 W light source), read-out: EC50) [µM] | EC50 (HeLa cells; Homo sapiens, light or radiation study, 0.5 h, 16 J/cm^2 light (30 mins from a 500 W light source), read-out: EC50) [µM] | EC50 (MRC5 cells; Homo sapiens, light or radiation study, 0.25 h, MRC5, 8 J/cm^2 light (15 mins from a 500 W light source), read-out: EC50) [µM] | EC50 (MRC5 cells; Homo sapiens, light or radiation study, 0.5 h, MRC5, 16 J/cm^2 light (30 mins from a 500 W light source), read-out: EC50) [µM] | EC50 (MRC5 cells; Homo sapiens, light or radiation study, MRC5, 0 J/cm^2 light (no light), read-out: EC50 (dark toxicity)) [µM]
55 | 85,000 M^−1cm^−1 | 688 | 57 | 696 | 715 | 727 | 0.36 | COc1ccc(C2=[N+]3C(=Nc4c(-c5ccccc5)cc(-c5ccc(OC)cc5)n4[B-]3(F)F)C(c3ccccc3)=C2)cc1 [Compound 2b] | 62 | 53 | 25 | un-measurable | 220 | 22 | – | – | – | – | – | –
57 | 75,000 M^−1cm^−1 | 679 | 86 | 685 | 714 | 719 | 0.10 | COc1ccc(C2=[N+]3C(=Nc4c(-c5ccccc5)c(Br)c(-c5ccc(OC)cc5)n4[B-]3(F)F)C(c3ccccc3)=C2Br)cc1 [Compound 4b] | – | – | – | – | – | – | – | – | – | – | – | –
– | 74,000 M^−1cm^−1 | 658 | – | 667 | 680 | – | – | F[B-]1(F)n2c(-c3ccccc3)cc(-c3ccc(Br)cc3)c2N=C2C(c3ccc(Br)cc3)=CC(c3ccccc3)=[N+]21 [Compound 5a] | – | – | – | – | – | – | – | – | – | – | – | –

— patent US7220732B2, “Compounds useful as photodynamic therapeutic agents” (priority 2002, dated 2007)
